Source: article PMC8500670, “A selective WDR5 degrader inhibits acute myeloid leukemia in patient-derived mouse models” (Science translational medicine, 2021)
Like-named read-outs stand apart in the source and are kept apart here.

Experiments:
Test in all cases: biochemical
Design in all cases: protein methyltransferase selectivity panel, enzyme activity relative to DMSO controls, single concentration in duplicate
NSD2 = molecular target: T1, NSD2 (Homo sapiens, UniProt O96028); settings: Substrate:=Nucleosomes
T1 sequence (O96028 1-1365): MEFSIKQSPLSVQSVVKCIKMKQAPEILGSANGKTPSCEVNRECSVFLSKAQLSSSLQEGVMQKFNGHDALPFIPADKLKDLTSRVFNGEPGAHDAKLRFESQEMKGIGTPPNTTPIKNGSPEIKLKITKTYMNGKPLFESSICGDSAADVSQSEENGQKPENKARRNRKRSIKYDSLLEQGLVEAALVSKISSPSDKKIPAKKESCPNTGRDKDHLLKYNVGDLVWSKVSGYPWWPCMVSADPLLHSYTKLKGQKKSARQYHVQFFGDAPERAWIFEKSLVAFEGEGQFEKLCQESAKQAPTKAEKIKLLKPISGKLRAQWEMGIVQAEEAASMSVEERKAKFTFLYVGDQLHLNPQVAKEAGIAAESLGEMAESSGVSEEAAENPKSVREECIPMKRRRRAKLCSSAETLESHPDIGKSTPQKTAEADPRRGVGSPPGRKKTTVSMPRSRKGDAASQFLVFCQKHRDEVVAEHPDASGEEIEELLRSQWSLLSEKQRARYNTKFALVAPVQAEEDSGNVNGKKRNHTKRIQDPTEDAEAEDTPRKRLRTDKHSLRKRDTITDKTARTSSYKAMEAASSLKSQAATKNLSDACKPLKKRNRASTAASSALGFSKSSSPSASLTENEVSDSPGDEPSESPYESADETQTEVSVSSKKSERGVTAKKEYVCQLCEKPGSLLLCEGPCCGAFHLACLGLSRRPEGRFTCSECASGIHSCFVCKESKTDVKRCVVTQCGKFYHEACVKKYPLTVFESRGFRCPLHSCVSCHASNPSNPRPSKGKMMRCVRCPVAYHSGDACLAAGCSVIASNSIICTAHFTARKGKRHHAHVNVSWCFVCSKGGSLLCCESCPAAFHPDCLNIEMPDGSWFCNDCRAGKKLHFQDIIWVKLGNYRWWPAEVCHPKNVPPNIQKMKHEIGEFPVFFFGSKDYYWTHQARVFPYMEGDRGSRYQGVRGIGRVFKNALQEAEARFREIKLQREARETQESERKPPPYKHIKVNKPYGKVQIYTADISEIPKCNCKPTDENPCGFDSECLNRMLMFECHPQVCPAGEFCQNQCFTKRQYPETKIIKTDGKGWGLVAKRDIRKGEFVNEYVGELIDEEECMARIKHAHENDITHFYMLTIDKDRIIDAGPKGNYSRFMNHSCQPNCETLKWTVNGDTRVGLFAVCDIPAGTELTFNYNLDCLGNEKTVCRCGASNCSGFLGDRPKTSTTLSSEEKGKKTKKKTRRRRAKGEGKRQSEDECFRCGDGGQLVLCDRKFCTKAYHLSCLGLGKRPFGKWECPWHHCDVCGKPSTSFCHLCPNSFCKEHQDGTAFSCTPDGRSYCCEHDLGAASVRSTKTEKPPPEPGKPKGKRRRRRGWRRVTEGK
Protocol: (§1) We next assessed selectivity of MS67 against 22 protein methyltransferases (table S2) and a broad panel of common drug targets including 45 kinases (table S3) and 44 G protein–coupled receptors (GPCR), ion channels, and transporters (table S4). […] We subsequently determined that MS67 had moderate binding affinity (Ki = 1.0 ± 0.8 μM) to Sigma 2 receptor (fig. S10).

PRMT7 = molecular target: T2, PRMT7 (Homo sapiens, UniProt Q9NVM4); settings: Substrate:=GST-GAR
T2 sequence (Q9NVM4 1-692): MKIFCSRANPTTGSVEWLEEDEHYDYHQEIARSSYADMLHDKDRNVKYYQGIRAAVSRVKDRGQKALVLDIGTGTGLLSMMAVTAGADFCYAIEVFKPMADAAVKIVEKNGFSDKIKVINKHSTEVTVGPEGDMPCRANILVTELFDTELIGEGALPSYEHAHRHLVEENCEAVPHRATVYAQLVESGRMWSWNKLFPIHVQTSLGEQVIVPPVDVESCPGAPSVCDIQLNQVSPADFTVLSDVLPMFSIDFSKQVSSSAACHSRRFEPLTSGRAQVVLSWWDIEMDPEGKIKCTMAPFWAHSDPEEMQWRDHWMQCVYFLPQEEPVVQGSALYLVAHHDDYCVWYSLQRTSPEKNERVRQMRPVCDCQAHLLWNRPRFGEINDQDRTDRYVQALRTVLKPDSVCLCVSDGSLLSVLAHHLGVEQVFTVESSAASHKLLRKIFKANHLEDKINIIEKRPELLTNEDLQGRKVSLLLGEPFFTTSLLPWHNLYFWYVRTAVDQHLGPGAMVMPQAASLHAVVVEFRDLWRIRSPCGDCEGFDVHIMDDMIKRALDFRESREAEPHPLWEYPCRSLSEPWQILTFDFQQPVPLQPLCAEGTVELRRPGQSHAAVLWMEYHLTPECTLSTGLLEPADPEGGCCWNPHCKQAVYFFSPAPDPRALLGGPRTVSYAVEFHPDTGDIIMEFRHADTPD
Protocol: as §1

SET7/9 = molecular target: T3, SET7/9 (Homo sapiens, UniProt Q8WTS6); settings: Substrate:=Core Histone
T3 construct: gene SETD7
T3 sequence (Q8WTS6 1-366): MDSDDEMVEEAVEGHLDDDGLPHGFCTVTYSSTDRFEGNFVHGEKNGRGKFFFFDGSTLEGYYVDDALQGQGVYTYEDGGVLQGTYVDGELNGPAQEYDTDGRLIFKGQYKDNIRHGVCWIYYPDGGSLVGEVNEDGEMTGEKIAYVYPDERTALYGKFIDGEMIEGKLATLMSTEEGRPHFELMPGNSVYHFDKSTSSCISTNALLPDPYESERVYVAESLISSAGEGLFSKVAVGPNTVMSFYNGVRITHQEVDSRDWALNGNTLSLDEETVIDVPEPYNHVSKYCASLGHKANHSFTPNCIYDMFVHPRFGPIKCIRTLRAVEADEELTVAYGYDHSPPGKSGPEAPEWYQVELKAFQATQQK
Protocol: as §1

[1] = read-out: Enzyme % Activity (relative to DMSO controls) / MS67 / 10 / Data 1:
[2] = read-out: Enzyme % Activity (relative to DMSO controls) / MS67 / 10 / Data 2:

`Cc1ncsc1-c1ccc([C@H](C)NC(=O)[C@@H]2C[C@@H](O)CN2C(=O)[C@@H](NC(=O)CNC(=O)c2ccc(F)c(-c3ccc(N4C[C@@H](C)N(C)[C@@H](C)C4)c(NC(=O)c4c[nH]c(=O)cc4C(F)(F)F)c3)c2)C(C)(C)C)cc1` [MS67] gave a remaining activity at 10 µM (NSD2; [1]) of 93%, a remaining activity at 10 µM (NSD2; [2]) of 107% and a remaining activity at 10 µM (PRMT7; [1]) of 100%. For the same molecule, the remaining activity at 10 µM (PRMT7; [2]) was 103%, the remaining activity at 10 µM (SET7/9; [1]) was 99.7% and the remaining activity at 10 µM (SET7/9; [2]) was 92%.
